Where “and” joins values, the source holds several entries; their conditions need not be identical. Equal values may be shown once. Inconclusive results and toxic doses are left out.
System: P388 leukemia ip, CD2F1 mice, survival T/C
Experiment: NCI In Vivo Anticancer Drug Screen. Data for tumor model P388 Leukemia (intraperitoneal) in CD2F1 (CDF1) mice
Conditions: endpoint: median survival time, higher = longer survival
Procedure, shortened: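 Mice carrying the transplanted tumor received test compound or vehicle. Survival was recorded in each group, and the value is the treated-group measurement divided by that of the vehicle-treated control group.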

[1] = dose: 6.25 mg/kg/injection, schedule: Q01DX009 (ip), vehicle: water
[2] = dose: 12.5 mg/kg/injection, schedule: Q01DX009 (ip), vehicle: water
[3] = dose: 25.0 mg/kg/injection, schedule: Q01DX009 (ip), vehicle: water
[4] = dose: 60.0 mg/kg/injection, schedule: Q01DX005 (ip), vehicle: saline with Tween-80
[5] = dose: 120.0 mg/kg/injection, schedule: Q01DX005 (ip), vehicle: saline with Tween-80
[6] = dose: 240.0 mg/kg/injection, schedule: Q01DX005 (ip), vehicle: saline with Tween-80

C(=N\Nc1nnc2c3cccnc3c3ccccc3c2n1)/c1ccc2c(c1)OCO2
T/C (dose: 100.0 mg/kg/injection, schedule: Q01DX001 (ip), vehicle: saline with Tween-80): 108 % of control
T/C (dose: 200.0 mg/kg/injection, schedule: Q01DX001 (ip), vehicle: saline with Tween-80): 104 % of control

Cc1cc(NN=O)nc(C)c1C#N
T/C (dose: 3.12 mg/kg/injection, schedule: Q01DX009 (ip), vehicle: water): 109 % of control
T/C [1]: 123 % of control
T/C [2]: 116 % of control
T/C [3]: 150 % of control and 151 % of control
T/C (dose: 50.0 mg/kg/injection, schedule: Q01DX009 (ip), vehicle: water): 178 % of control and 190 % of control
T/C (dose: 100.0 mg/kg/injection, schedule: Q01DX009 (ip), vehicle: water): 178 % of control

C=COC(=O)C(Cc1ccc(OC)cc1)NC(=O)OCc1ccccc1 (configuration not stated)
T/C (dose: 100.0 mg/kg/injection, schedule: Q04DX002 (ip), vehicle: Klucel (hydroxypropylcellulose) (HPC)): 103 % of control
T/C (dose: 200.0 mg/kg/injection, schedule: Q04DX002 (ip), vehicle: Klucel (hydroxypropylcellulose) (HPC)): 91 % of control
T/C (dose: 400.0 mg/kg/injection, schedule: Q04DX002 (ip), vehicle: Klucel (hydroxypropylcellulose) (HPC)): 94 % of control

COc1ccc2nc3cc(Cl)ccc3c(NCC(O)CNc3c4ccc(Cl)cc4nc4ccc(OC)nc34)c2n1
T/C [4]: 92 % of control
T/C [5]: 90 % of control
T/C [6]: 90 % of control

CCCC1(c2ccccc2)C(=O)NCNC1=O
T/C (dose: 20.0 mg/kg/injection, schedule: Q01DX005 (ip), vehicle: Klucel (hydroxypropylcellulose) (HPC)): 100 % of control
T/C (dose: 40.0 mg/kg/injection, schedule: Q01DX005 (ip), vehicle: Klucel (hydroxypropylcellulose) (HPC)): 99 % of control and 109 % of control
T/C (dose: 60.0 mg/kg/injection, schedule: Q01DX005 (ip), vehicle: Klucel (hydroxypropylcellulose) (HPC)): 100 % of control and 116 % of control
T/C (dose: 120.0 mg/kg/injection, schedule: Q01DX005 (ip), vehicle: Klucel (hydroxypropylcellulose) (HPC)): 93 % of control and 95 % of control
T/C (dose: 240.0 mg/kg/injection, schedule: Q01DX005 (ip), vehicle: Klucel (hydroxypropylcellulose) (HPC)): 92 % of control

CCCCC(CCCCCC(CCCC)C1NCCc2cc(OC)c(OC)cc21)C1NCCc2cc(OC)c(OC)cc21 (configuration not stated)
T/C (dose: 6.25 mg/kg/injection, schedule: Q01DX005 (ip), vehicle: saline with Tween-80): 91 % of control
T/C (dose: 12.5 mg/kg/injection, schedule: Q01DX005 (ip), vehicle: saline with Tween-80): 93 % of control
T/C (dose: 25.0 mg/kg/injection, schedule: Q01DX005 (ip), vehicle: saline with Tween-80): 93 % of control

CN(C)CC(CN(C)C)C(=O)/C=C/c1ccc2c(c1)OCO2
T/C (dose: 0.78 mg/kg/injection, schedule: Q01DX005 (ip), vehicle: Klucel (hydroxypropylcellulose) (HPC)): 112 % of control
T/C (dose: 1.56 mg/kg/injection, schedule: Q01DX005 (ip), vehicle: Klucel (hydroxypropylcellulose) (HPC)): 104 % of control
T/C (dose: 3.12 mg/kg/injection, schedule: Q01DX005 (ip), vehicle: Klucel (hydroxypropylcellulose) (HPC)): 104 % of control

CN1C(=O)Cn2c(nn(CCN3CCOCC3)c(=O)c2=O)-c2cc(Cl)ccc21
T/C (dose: 50.0 mg/kg/injection, schedule: Q01DX009 (ip), vehicle: saline): 99 % of control
T/C (dose: 100.0 mg/kg/injection, schedule: Q01DX009 (ip), vehicle: saline): 102 % of control
T/C (dose: 200.0 mg/kg/injection, schedule: Q01DX009 (ip), vehicle: saline): 105 % of control

C=C1C(=O)O[C@H]2C[C@H]3O[C@H]3[C@@H]12
T/C (dose: 1.56 mg/kg/injection, schedule: Q01DX009 (ip), vehicle: water): 100 % of control
T/C (dose: 3.13 mg/kg/injection, schedule: Q01DX009 (ip), vehicle: water): 99 % of control
T/C [1]: 98 % of control
T/C [2]: 101 % of control
T/C [3]: 107 % of control

Cc1nc(N)c2nc(SC(C)C)c(N)nc2n1
T/C (dose: 50.0 mg/kg/injection, schedule: Q01DX009 (ip), vehicle: saline with Tween-80): 91 % of control
T/C (dose: 100.0 mg/kg/injection, schedule: Q01DX009 (ip), vehicle: saline with Tween-80): 91 % of control
T/C (dose: 200.0 mg/kg/injection, schedule: Q01DX009 (ip), vehicle: saline with Tween-80): 91 % of control

COc1cc(C2CC(C)(O)Oc3cc4c(cc32)OCO4)cc(OC)c1O (configuration not stated)
T/C [4]: 95 % of control
T/C [5]: 98 % of control
T/C [6]: 95 % of control

N#C/C(=C\c1ccc(Cl)cc1Cl)C(=O)N/N=C/c1ccc(Cl)cc1Cl
T/C (dose: 100.0 mg/kg/injection, schedule: Q04DX003 (ip), vehicle: saline): 95 % of control
T/C (dose: 200.0 mg/kg/injection, schedule: Q04DX003 (ip), vehicle: saline): 97 % of control
T/C (dose: 400.0 mg/kg/injection, schedule: Q04DX003 (ip), vehicle: saline): 90 % of control

Reference: PubChem BioAssay AID330 (DTP/NCI, 2004)
